Values of other authors in US5424332A, “Pharmaceutical composition and process for the production thereof” (priority 1993, dated 1995).

Tests used:
[1] = high doses; parenteral, dermal and, in particular, peroral administration
Ehrlich ascites tumor = settings: mice
[2] = tested on: mitomycin C toxic effects

| SMILES | adverse effects and toxicity [1] | growth of the Ehrlich ascites tumor (Ehrlich ascites tumor) | toxic effects of mitomycin C [2] | anti-psoriatic action (psoriasis) |
| --- | --- | --- | --- | --- |
| O=C(O)/C(O)=C(\O)C(=O)O [dihydroxy fumaric acid] | unacceptable rate of adverse effects and high toxicity |  |  |  |
| NC(=O)/C=C/C(N)=O [fumaramide] | unacceptable rate of adverse effects and high toxicity |  |  |  |
| O=C(O)/C=C/C(=O)O [fumaric acid] | unacceptable rate of adverse effects and high toxicity | impedes the growth | reduces the toxic effects | anti-psoriatic |
| N#C/C=C/C#N [fumaronitrile] | unacceptable rate of adverse effects and high toxicity |  |  |  |
